# Data from patent US7803795B2, “Phthalazine derivatives as parp inhibitors” (Janssen Pharmaceutica N.V., priority 2004, dated 2010).
# Tests used:
# PARP-1 enzyme = target: T1, PARP-1 enzyme (Homo sapiens, UniProt P09874); test: in vitro Scintillation Proximity Assay (SPA) for PARP-1 inhibitory activity; assay type: biochemical; details: [3H]-NAD+, biotinylated histones, nicked DNA; dose-response 10^-5 M to 10^-8 M; read-out: in vitro SPA assay PARP-1 pIC50 (converted)
# T1 construct: made in house
# T1 sequence (P09874 whole entry): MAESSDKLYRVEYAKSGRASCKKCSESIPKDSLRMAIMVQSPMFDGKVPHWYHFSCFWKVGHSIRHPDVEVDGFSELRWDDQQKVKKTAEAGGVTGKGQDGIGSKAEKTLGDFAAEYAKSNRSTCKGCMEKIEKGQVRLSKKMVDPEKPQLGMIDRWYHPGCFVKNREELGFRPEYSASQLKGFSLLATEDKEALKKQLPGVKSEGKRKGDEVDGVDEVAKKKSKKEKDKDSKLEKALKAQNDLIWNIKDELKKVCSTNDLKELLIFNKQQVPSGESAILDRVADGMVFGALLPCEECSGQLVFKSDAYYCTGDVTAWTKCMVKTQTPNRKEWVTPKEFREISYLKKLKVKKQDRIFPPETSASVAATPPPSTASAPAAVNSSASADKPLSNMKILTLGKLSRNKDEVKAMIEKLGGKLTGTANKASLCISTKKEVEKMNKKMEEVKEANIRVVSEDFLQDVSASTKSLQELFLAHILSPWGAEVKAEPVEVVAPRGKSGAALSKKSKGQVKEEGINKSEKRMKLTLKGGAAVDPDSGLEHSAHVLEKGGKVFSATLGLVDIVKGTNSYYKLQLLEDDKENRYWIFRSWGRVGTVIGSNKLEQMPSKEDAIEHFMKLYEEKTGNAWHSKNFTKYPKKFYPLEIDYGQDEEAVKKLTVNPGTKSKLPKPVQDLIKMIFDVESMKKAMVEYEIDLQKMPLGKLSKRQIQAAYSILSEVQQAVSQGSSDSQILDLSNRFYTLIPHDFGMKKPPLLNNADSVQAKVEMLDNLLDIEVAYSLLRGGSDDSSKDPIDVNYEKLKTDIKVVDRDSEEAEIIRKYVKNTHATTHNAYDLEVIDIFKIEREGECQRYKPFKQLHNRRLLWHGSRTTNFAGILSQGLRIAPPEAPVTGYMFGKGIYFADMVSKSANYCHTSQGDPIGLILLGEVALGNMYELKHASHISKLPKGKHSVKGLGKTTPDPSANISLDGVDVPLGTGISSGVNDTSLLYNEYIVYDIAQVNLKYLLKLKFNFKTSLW
# Protocol: In vitro Scintillation Proximity Assay (SPA) for PARP-1 Inhibitory Activity
# Compounds of the present invention were tested in an in vitro assay based on SPA technology (proprietary to Amersham Pharmacia Biotech).
# In principle, the assay relies upon the well established SPA technology for the detection of poly(ADP-ribosylation of biotinylated target proteins, i.e histones. This ribosylation is induced using nicked DNA activated PARP-1 enzyme and [^3H]-nicotinamide adenine dinucleotide ([^3H]-NAD^+) as ADP-ribosyl donor.
# As inducer of PARP-1 enzyme activity, nicked DNA was prepared. For this, 25 mg of DNA (supplier: Sigma) was dissolved in 25 ml DNAse buffer (10 mM Tris-HCl, pH 7.4; 0.5 mg/ml Bovine Serum Albumine (BSA); 5 mM MgCl2.6H2O and 1 mM KCl) to which 50 Al DNAse solution (1 mg/ml in 0.15 M NaCl) was added. After an incubation of 90 min. at 37° C., the reaction was terminated by adding 1.45 g NaCl, followed by a further incubation at 58° C. for 15 min. The reaction mixture was cooled on ice and dialysed at 4° C. for respectively 1.5 and 2 hours against 1.51 of 0.2 M KCl, and twice against 1.51 of 0.01 M KCl for 1.5 and 2 h respectively. The mixture was aliquoted and stored at −20° C. Histones (1 mg/ml, type II-A, supplier: Sigma) were biotinylated using the biotinylation kit of Amersham and stored aliquoted at −20° C. A stock solution of 100 mg/ml SPA poly(vinyl toluene) (PVT) beads (supplier: Amersham) was made in PBS. A stock solution of [^3H]-NAD^+ was made by adding 120 μl of [^3H]-NAD^+ (0.1 mCi/ml, supplier: NEN) to 6 ml incubation buffer (50 mM Tris/HCl, pH 8; 0.2 mM DTT; 4 mM MgCl2). A solution of 4 mM NAD^+ (supplier: Roche) was made in incubation buffer (from a 100 mM stock solution in water stored at −20° C.). The PARP-1 enzyme was produced using art known techniques, i.e. cloning and expression of the protein starting from human liver cDNA. Information concerning the used protein sequence of the PARP-1 enzyme including literature references can be found in the Swiss-Prot database under primary accession number P09874. Biotinylated histones and PVT-SPA beads were mixed and pre-incubated for 30 min. at room temperature. PARP-1 enzyme (concentration was lot dependent) was mixed with the nicked DNA and the mixture was pre-incubated for 30 min. at 4° C. Equal parts of this histones/PVT-SPA beads solution and PARP-1 enzyme/DNA solution were mixed and 75 μl of this mixture together with 1 μl of compound in DMSO and 25 μl of [^3H]-NAD^+ was added per well into a 96-well microtiterplate. The final concentrations in the incubation mixture were 2 μg/ml for the biotinylated histones, 2 mg/ml for the PVT-SPA beads, 2 μg/ml for the nicked DNA and between 5-10 μg/ml for the PARP-1 enzyme. After incubation of the mixture for 15 min. at room temperature, the reaction was terminated by adding 100 μl of 4 mM NAD^+ in incubation buffer (final concentration 2 mM) and plates were mixed.
# The beads were allowed to sediment for at least 15 min. and plates transferred to a TopCountNXT™ (Packard) for scintillation counting, values were expressed as counts per minute (cpm). For each experiment, controls (containing PARP-1 enzyme and DMSO without compound), a blank incubation (containing DMSO but no PARP-1 enzyme or compound) and samples (containing PARP-1 enzyme and compound dissolved in DMSO) were run in parallel. All compounds tested were dissolved and eventually further diluted in DMSO. […] In each test, the blank value was subtracted from both the control and the sample values. The control sample represented maximal PARP-1 enzyme activity. For each sample, the amount of cpm was expressed as a percentage of the mean cpm value of the controls. When appropriate, IC50-values (concentration of the drug, needed to reduce the PARP-1 enzyme activity to 50% of the control) were computed using linear interpolation between the experimental points just above and below the 50% level. […]
SMILES,IC50 (PARP-1 enzyme) [nM],melting point [°C]
O=c1[nH]nc(NC2CCN(C[C@@H](O)[C@@H]3CCc4ccccc4O3)CC2)c2ccccc12 (relative stereo) [Compound 27],857,–
O=c1[nH]nc(C2CCN(Cc3ccccc3)CC2)c2ccccc12 [Compound 1],284,222
O=c1[nH]nc(N[C@@H]2C[C@H]3CC[C@@H](C2)N3CCCC(c2ccc(F)cc2)c2ccc(F)cc2)c2ccccc12 [Compound 3],430,–
O=c1[nH]nc(C2CCNCC2)c2ccccc12 [Compound 4],251,–
CCOC(=O)N1[C@@H]2CC[C@H]1C[C@H](Nc1n[nH]c(=O)c3ccccc13)C2 [Compound 11],86.7,218.6
Clc1nnc(NC2CCN(Cc3ccccc3)C2)c2ccccc12 (stereo not shown) [Compound 12],1140,–
O=c1[nH]nc(C2CCN(CCCOc3ccc(F)cc3)CC2)c2ccccc12 [Compound 13],75.5,–
O=c1[nH]nc(N[C@@H]2C[C@H]3CC[C@@H](C2)N3)c2ccccc12 [Compound 15],139,–
CCOC(=O)N1[C@@H]2CC[C@H]1C[C@H](Nc1nnc(Cl)c3ccccc13)C2 [Compound 24],973,–
CCOC(=O)N1CCC(c2n[nH]c(=O)c3ccccc23)CC1 [Compound 25],2990,–
Cc1nnc(N2CCN(CCCC(c3ccc(F)cc3)c3ccc(F)cc3)CC2)c2ccccc12 [Compound 29],1780,–
O=c1[nH]nc(NC2CCCN(CCCC(c3ccc(F)cc3)c3ccc(F)cc3)CC2)c2ccccc12 (stereo not shown) [Compound 30],442,–
O=c1[nH]nc(NC2CCCNCC2)c2ccccc12 (stereo not shown) [Compound 34],120,–
O=c1[nH]nc(NCC2CCCN(Cc3ccccc3)C2)c2ccccc12 (stereo not shown) [Compound 44],1120,–
O=c1[nH]nc(NC2CCN(CCCCOc3ccccc3)CC2)c2ccccc12 [Compound 46],843,–
CCOC(=O)N1CCC(Nc2n[nH]c(=O)c3ccccc23)C1 (stereo not shown) [Compound 48],3070,–
O=c1[nH]nc(NCC2CCCN(CCCC(c3ccc(F)cc3)c3ccc(F)cc3)C2)c2ccccc12 (stereo not shown) [Compound 49],3820,–
CCOC(=O)N1CCCC(Nc2n[nH]c(=O)c3ccccc23)CC1 (stereo not shown) [Compound 50],2510,–
O=c1[nH]nc(NC2CCN(Cc3ccccc3)C2)c2ccccc12 (stereo not shown) [Compound 51],432,–
O=c1[nH]nc(N2CCN(CCCC(c3ccc(F)cc3)c3ccc(F)cc3)CC2)c2ccccc12 [Compound 52],435,–
O=c1[nH]nc(NC2CCCN(Cc3ccccc3)C2)c2ccccc12 (stereo not shown) [Compound 53],1070,–

SMILES,IC50 (PARP-1 enzyme) [nM],melting point [°C]
O=c1[nH]nc(N2CCC(c3cccc(C(F)(F)F)c3)C2)c2ccccc12 (stereo not shown) [Compound 55],1650,–
CCOC(=O)N1CCC(Nc2n[nH]c(=O)c3ccccc23)CC1 [Compound 56],5640,–
Fc1ccc(C(CCCN2CCN(c3nnc(Cl)c4ccccc34)CC2)c2ccc(F)cc2)cc1 [Compound 57],1970,–
CCOC(=O)N1CCN(c2nnc(Cl)c3ccccc23)CC1 [Compound 58],10000,–
Clc1nnc(NC2CCN(CCCCOc3ccccc3)CC2)c2ccccc12 [Compound 59],3300,–
CN(c1nc2ccccc2s1)C1CCN(c2nnc(Cl)c3ccccc23)CC1 [Compound 61],1290,–
COc1ccc(CCN2CCC(Nc3n[nH]c(=O)c4ccccc34)CC2)cc1 [Compound 63],684,–
O=c1[nH]nc(NC2CCN(C/C=C/c3ccccc3)CC2)c2ccccc12 [Compound 65],851,–
O=c1[nH]nc(C2CCN(C/C=C/c3ccccc3)CC2)c2ccccc12 [Compound 66],767,–
O=c1[nH]nc(C2CCN(CCCC(c3ccc(F)cc3)c3ccc(F)cc3)CC2)c2ccccc12 [Compound 67],303,–
O=c1[nH]nc(C2CCN(CCCCOc3ccccc3)CC2)c2ccccc12 [Compound 68],274,–
O=c1[nH]nc(C2CCN(c3ncccn3)CC2)c2ccccc12 [Compound 69],2150,–
Cc1nnc(N2CCN(CCn3c(=O)[nH]c4ccccc4c3=O)CC2)c2ccccc12 [Compound 70],3440,–
Cc1nnc(N2CCN(CCn3c(=O)[nH]c4ccccc43)CC2)c2ccccc12 [Compound 71],7410,–
Cc1nc2ccccn2c(=O)c1CCN1CCN(c2nnc(C)c3ccccc23)CC1 [Compound 72],8970,–
Cc1nc2sccn2c(=O)c1CCN1CCN(c2nnc(C)c3ccccc23)CC1 [Compound 73],1900,–
Cc1nc2scc(C)n2c(=O)c1CCN1CCN(c2nnc(C)c3ccccc23)CC1 [Compound 74],3210,–
Cc1nc2n(c(=O)c1CCN1CCN(c3nnc(C)c4ccccc34)CC1)CCS2 [Compound 75],4240,–
Cc1nc2n(c(=O)c1CCN1CCN(c3nnc(C)c4ccccc34)CC1)CCCS2 [Compound 76],3630,–
Clc1nnc(N2CCN(c3ccccc3)CC2)c2ccccc12 [Compound 77],1320,–
